# Laboratory results published in paper PMC11219871, “Epigenetic-based differentiation therapy for Acute Myeloid Leukemia” (Nature Communications, 2024).
# Values joined by “and” are separate entries in the source; they are usually repeats but may differ in a detail not shown here. Equal entries are not always repeated. Where two headings read alike, the source gives them in different places.
# Key:
# Type in all cases: cell-based, human
# [1] = system: HL-60; assay: Differentiation-apoptosis assay, CD11b / annexin-V / Sytox Green / myeloid markers flow cytometry; design: Cell viability (%): concentration or dose not given beside the values; CD11b levels: unit not given here; settings: for Annexin V (%) Replicate 1 / Annexin V (%) Replicate 2 / Annexin V (%) Replicate 3 / CD11b (%) Replicate 1 / CD11b (%) Replicate 2 / CD11b (%) Replicate 3: HL-60, daily 25% GI50, 48 h; for CD11b (%) / Cell viability (%): HL-60, 48 h treatment, replicates 1-3 (Suppl. Fig. 5A)
# Procedure: Next, the cells were washed twice with phosphate-buffered saline (PBS) and resuspended in 1X Binding Buffer at a concentration of 1 × 10^6 cells/mL. […] Finally, after the addition of 400 µL of 1X Binding Buffer to each tube, samples were collected on a BD FACSCanto flow cytometer (Becton Dickinson, San Jose, CA, USA) and analyzed using FlowJo software.
# Then, 1 million cells (volume of 250 µL) were added and incubated for 30 min at room temperature in darkness. After 10 min incubation at room temperature with 2 mL of FACSLysing 1X, cells were centrifuged at 540 g for 5 min and washed twice with FACSBuffer. Finally, after centrifugation at 540 g for 5 min cells were resuspended in FACSBuffer.
# [2] = system: LINE-1 DNA methylation in HL-60; assay: LINE-1 pyrosequencing; settings: HL-60, 10 days
# Procedure: (§1) DNA methylation of the repetitive element LINE-1 was analyzed using a pyrosequencing technique. […] Cells were washed twice with PBS, and then genomic DNA was extracted using a DNA Kit (Nucleo Spin Tissue, Cat No 74095250, Macherey-Nagel) following the manufacturer's instructions. DNA purity and concentration were measured using a NanoDrop spectrophotometer (Thermo Scientific). A 1 μg amount of genomic DNA was treated and modified using a CpGenome DNA modification Kit (Cat No S7820, Chemicon International) following the manufacturer's instructions. […] [NT]) in a final volume of 25 μL. The resulting biotinylated PCR products were immobilized to Streptavidin Sepharose ® High-Performance beads (GE Healthcare) and processed to yield high-quality ssDNA using the PyroMark Vacuum Prep Workstation (Biotage) according to the manufacturer's instructions. The pyrosequencing reactions were performed using the PyromarkTM ID (Biotage), and sequence analysis was performed using the PyroQ-CpG analysis software (Biotage).
# [3] = system: LINE-1 DNA methylation in ML-2; assay: LINE-1 pyrosequencing; settings: ML-2, 10 days
# Procedure: as §1
# [4] = system: LINE-1 DNA methylation in MOLM-13; assay: LINE-1 pyrosequencing; settings: MOLM-13, 5 days
# Procedure: as §1
# [5] = system: LINE-1 DNA methylation in MV4-11; assay: LINE-1 pyrosequencing; settings: MV4-11, 5 days
# Procedure: as §1
# [6] = system: HL-60; assay: Cell proliferation assay: GI50; settings: read-out: GI50
# Procedure: (§2) Cell proliferation was analyzed using the CellTiter 96 Aqueous One Solution Cell Proliferation Assay (Promega, Madison, WI). This is a colorimetric method for determining the number of viable cells in proliferation. For the assay, suspension cells were cultured in triplicate at a density of 1 × 10^6 cells/mL in 96-well plates (100.000 cells/well, 100 µL/well), using only the 60 inner wells to avoid any border effects. […] Then, the cells were incubated with 100 μL/well of medium and 20 μL/well of CellTiter 96 Aqueous One Solution reagent for 1–3 h. […] The background absorbance was measured in wells with only cell line medium and solution reagent. First, the average of the absorbance from the control wells was subtracted from all other absorbance values. Data were calculated as the percentage of total absorbance of treated cells/absorbance of non-treated cells. The GI50 values of the different compounds were determined using non-linear regression plots made with GraphPad Prism v5 software.
# [7] = system: ML-2; assay: Cell proliferation assay: GI50
# Procedure: as §2
# [8] = system: MOLM-13; assay: Cell proliferation assay: GI50
# Procedure: as §2
# [9] = system: MV4-11; assay: Cell proliferation assay: GI50
# Procedure: as §2
# [10] = system: ML-2; assay: Differentiation-apoptosis assay, CD11b / annexin-V / Sytox Green / myeloid markers flow cytometry; design: Cell viability: concentration or dose not given beside the values; CD11b levels: unit not given here; settings: for CD11b / Cell viability: ML-2, 48 h, replicates (Fig 4A)
# Procedure: (§3) Next, the cells were washed twice with phosphate-buffered saline (PBS) and resuspended in 1X Binding Buffer at a concentration of 1 × 10^6 cells/mL. An 8-µL aliquot of APC-CD11b (BD Pharmingen, Franklin Lakes, NJ, USA) and 1 µL of FITC annexin-V (AV) (BD Pharmingen, Franklin Lakes, NJ, USA) antibodies were added and incubated for 15 min at room temperature in the dark. Finally, after the addition of 400 µL of 1X Binding Buffer to each tube, samples were collected on a BD FACSCanto flow cytometer (Becton Dickinson, San Jose, CA, USA) and analyzed using FlowJo software.
# (§4) For the rest of experiments, the mix of antibodies (2 µL of BV786-CD13, Cat No, 744748 BD; 1 µL of diluted 1:10 antibody of PB-HLADR, Cat No 307633, Biolegend; 5 µL of APCH7-CD14, Cat No 641394, BD) was added to 10 µL of Brilliant Stain Buffer Plus (Becton Dickinson, San Jose, CA, USA). Then, 1 million cells (volume of 250 µL) were added and incubated for 30 min at room temperature in darkness. After 10 min incubation at room temperature with 2 mL of FACSLysing 1X, cells were centrifuged at 540 g for 5 min and washed twice with FACSBuffer. Finally, after centrifugation at 540 g for 5 min cells were resuspended in FACSBuffer.
# [11] = system: MOLM-13; assay: as above; design: Cell viability (%): concentration or dose not given beside the values; CD11b levels: unit not given here; settings: for CD11b (%) / Cell viability (%): MOLM-13, 48 h treatment, replicates 1-3 (Suppl. Fig. 5A)
# Procedure: as §3, §4
# [12] = system: MV4-11; assay: as above; design: Cell viability (%): concentration or dose not given beside the values; CD11b levels: unit not given here; settings: for CD11b (%) / Cell viability (%): MV4-11, 48 h treatment, replicates 1-3 (Suppl. Fig. 5A)
# Procedure: as §3, §4
smiles,measurement,setting,value
"COc1cc2c(cc1OCCCN1CCCC1)N=C(N)C21CCC1 [Compound A-366, A-366, reference compound]",Annexin V (%) Replicate 1,[1],1.45%
same,Annexin V (%) Replicate 2,[1],1.05%
same,Annexin V (%) Replicate 3,[1],1.10%
same,CD11b (%) Replicate 1,[1],9.70%
same,CD11b (%) Replicate 2,[1],5.40%
same,CD11b (%) Replicate 3,[1],4.85%
"Nc1ncn([C@H]2C[C@H](O)[C@@H](CO)O2)c(=O)n1 [Decitabine, reference compound]",Annexin V (%) Replicate 1,[1],4.10%
same,Annexin V (%) Replicate 2,[1],3.17%
same,Annexin V (%) Replicate 3,[1],2.48%
same,CD11b (%) Replicate 1,[1],7.50%
same,CD11b (%) Replicate 2,[1],9.90%
same,CD11b (%) Replicate 3,[1],9.03%
same,LINE-1 methylation (%) CG Position 1,[2],35% and 39%
same,LINE-1 methylation (%) CG Position 2,[2],32% and 40%
same,LINE-1 methylation (%) CG Position 3,[2],43% and 55%
same,LINE-1 methylation (%) CG Position 4,[2],44% and 52%
same,LINE-1 methylation (%) CG Position 5,[2],33% and 37%
same,LINE-1 methylation (%) CG Position 1,[3],36% and 34%
same,LINE-1 methylation (%) CG Position 2,[3],39% and 33%
same,LINE-1 methylation (%) CG Position 3,[3],42%
same,LINE-1 methylation (%) CG Position 4,[3],41% and 39%
same,LINE-1 methylation (%) CG Position 5,[3],32% and 28%
same,LINE-1 methylation (%) CG Position 1,[4],36% and 38%
same,LINE-1 methylation (%) CG Position 2,[4],37% and 43%
same,LINE-1 methylation (%) CG Position 3,[4],48% and 46%
same,LINE-1 methylation (%) CG Position 4,[4],46% and 54%
same,LINE-1 methylation (%) CG Position 5,[4],37% and 35%
same,LINE-1 methylation (%) CG Position 1,[5],53% and 47%
same,LINE-1 methylation (%) CG Position 2,[5],50% and 54%
same,LINE-1 methylation (%) CG Position 3,[5],53% and 55%
same,LINE-1 methylation (%) CG Position 4,[5],55% and 53%
same,LINE-1 methylation (%) CG Position 5,[5],43% and 45%
"Nc1ccccc1NC(=O)c1ccc(CNC(=O)OCc2cccnc2)cc1 [Entinostat, reference compound]",GI50,"[6]; HL-60, replicates 1-3, µM for the other inhibitors",8.3 µM and 7.3 µM
same,GI50,"[6]; Homo sapiens, HL-60, HL-60, replicates 1-3, µM for the other inhibitors",7.8 µM
same,GI50,"[7]; Homo sapiens, ML-2, 48 h",9.1 µM
same,GI50,"[7]; Homo sapiens, ML-2, ML-2, replicates 1-3, µM for the other inhibitors",6.6 µM
same,GI50,"[7]; ML-2, replicates 1-3, µM for the other inhibitors",10.9 µM and 9.8 µM
same,GI50,"[8]; Homo sapiens, MOLM-13, 48 h",2.4 µM
same,GI50,"[8]; Homo sapiens, MOLM-13, MOLM-13, replicates 1-3, µM for the other inhibitors",2.6 µM
same,GI50,"[8]; MOLM-13, replicates 1-3, µM for the other inhibitors",2 µM
same,GI50,"[9]; Homo sapiens, MV4-11, MV4-11, replicates 1-3, µM for the other inhibitors",3.3 µM
same,GI50,"[9]; MV4-11, replicates 1-3, µM for the other inhibitors",2.8 µM and 3 µM
same,CD11b (%),[1],32.6% and 37.2% and 30.1%
same,Cell viability (%),[1],38.4% and 38.5% and 40.7%
same,CD11b,[10],25.1% and 39.8% and 36.7%
same,Cell viability,[10],59.1% and 65.7% and 58.8%
same,CD11b (%),[11],76.1% and 83.2% and 84.3%
same,Cell viability (%),[11],47.7% and 56.4% and 56.1%
same,CD11b (%),[12],41.0% and 45.6% and 43.2%
same,Cell viability (%),[12],35.1% and 39.2% and 39.7%
"CCNC(=O)C[C@@H]1N=C(c2ccc(Cl)cc2)c2cc(OC)ccc2-n2c(C)nnc21 [Molibresib, reference compound]",CD11b levels,"[1]; HL-60 treated daily for 48 h, replicates (Fig 6D)",14.6 and 15.6 and 12.7
same,CD11b levels,"[10]; ML-2 treated daily for 48 h, replicates (Fig 6E)",15.1 and 13.2 and 11.7
same,CD11b levels,"[11]; MOLM-13, daily treatment for 48 h, replicates 1-3 (Suppl. Fig. 9A)",13.1 and 10.8 and 12.3
same,CD11b levels,"[12]; MV4-11, daily treatment for 48 h, replicates 1-3 (Suppl. Fig. 9A)",12.1 and 15.4 and 13.7
"Cn1cc(CNCC2CCN(c3ncc(C(=O)NO)cn3)CC2)c2ccccc21 [Quisinostat, reference compound]",GI50,"[6]; HL-60, replicates 1-3, nM for Panobistat and Quisinostat",0.138 µM and 0.103 µM
same,GI50,"[6]; Homo sapiens, HL-60, HL-60, replicates 1-3, nM for Panobistat and Quisinostat",0.0957 µM
same,GI50,"[6]; Homo sapiens, HL-60, HL-60",0.112 µM
same,GI50,"[7]; Homo sapiens, ML-2, ML-2",0.076 µM
same,GI50,"[7]; Homo sapiens, ML-2, ML-2, replicates 1-3, nM for Panobistat and Quisinostat",0.0673 µM
same,GI50,"[7]; ML-2, replicates 1-3, nM for Panobistat and Quisinostat",0.0895 µM and 0.0712 µM
same,GI50,"[8]; Homo sapiens, MOLM-13, MOLM-13",0.067 µM
same,GI50,"[8]; Homo sapiens, MOLM-13, MOLM-13, replicates 1-3, nM for Panobistat and Quisinostat",0.0589 µM
same,GI50,"[8]; MOLM-13, replicates 1-3, nM for Panobistat and Quisinostat",0.0736 µM and 0.0685 µM
same,GI50,"[9]; Homo sapiens, MV4-11, MV4-11",0.013 µM
same,GI50,"[9]; MV4-11, replicates 1-3, nM for Panobistat and Quisinostat",0.0131 µM and 0.0143 µM
same,CD11b (%),[1],36.8% and 39.6% and 35.4%
same,Cell viability (%),[1],84.1% and 72.6% and 75.5%
same,CD11b,[10],35.4% and 25.9% and 25.4%
same,Cell viability,[10],86.7% and 75.1% and 77.3%
same,CD11b (%),[11],55.3% and 50.4% and 58.7%
same,Cell viability (%),[11],64.2% and 57.7% and 56.3%
same,CD11b (%),[12],16.1% and 10.9% and 10.0%
same,Cell viability (%),[12],83.6% and 79% and 74.7%
"CCCc1nn(C)c2c(=O)[nH]c(-c3cc(S(=O)(=O)N4CCN(C)CC4)ccc3OCC)nc12 [Sildenafil, reference compound]",Annexin V (%) Replicate 1,[1],0.22%
same,Annexin V (%) Replicate 2,[1],0.14%
same,Annexin V (%) Replicate 3,[1],0.18%
same,CD11b (%) Replicate 1,[1],0.00%
same,CD11b (%) Replicate 2,[1],4.74%
same,CD11b (%) Replicate 3,[1],4.47%
